Experimental data reported in ChEMBL document CHEMBL1201862, “PubChem BioAssay data set” (2004).
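96-well plates; 48 h exposure; 5 concentrations. Endpoints by linear interpolation between flanking doses. Not reached: highest tested concentration assigned. At the GI50, growth is halved.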 Active and inactive are the calls of the source. Cut-off read from the data, not from the text of the source: active = GI50 up to about 1.1 µM and inactive = higher.

What was measured:
Assay in all cases: NCI-60 cell line screen, 48 h
SK-MEL-5 = tested on: SK-MEL-5
A498 = tested on: A498
SNB-75 = tested on: SNB-75
SK-MEL-28 = tested on: SK-MEL-28
BT-549 = tested on: BT-549
SF-268 = tested on: SF-268
HT-29 = tested on: HT-29
MDA-MB-435 = tested on: MDA-MB-435
PC-3 = tested on: PC-3
OVCAR-4 = tested on: OVCAR-4
COLO 205 = tested on: COLO 205
T47D = tested on: T47D
A549 = tested on: A549
SF-539 = tested on: SF-539
KM12 = tested on: KM12
SW-620 = tested on: SW-620
LOX IMVI = tested on: LOX IMVI
DU-145 = tested on: DU-145
HOP-62 = tested on: HOP-62
NCI-H522 = tested on: NCI-H522

Measured: GI50

COc1cc(OCc2nc3cc(C(F)(F)F)ccc3nc2-c2ccccc2)cc(OC)c1OC
inactive: SK-MEL-5 17.1 µM | A498 > 100 µM | SNB-75 98.9 µM | SK-MEL-28 65.3 µM | BT-549 > 100 µM | SF-268 > 100 µM | HT-29 > 100 µM | MDA-MB-435 > 100 µM | PC-3 98.9 µM | OVCAR-4 95.3 µM | COLO 205 > 100 µM | T47D 11.9 µM | A549 36.9 µM | SF-539 45.8 µM | KM12 > 100 µM | SW-620 > 100 µM | LOX IMVI > 100 µM | DU-145 86.9 µM

N#C[C@@]12CCCC(=O)[C@@H]1[C@H]1CCC[C@H]12
inactive: SK-MEL-5 15.8 µM | HOP-62 15.2 µM | A498 17.1 µM | SNB-75 13.7 µM | SK-MEL-28 17.7 µM | BT-549 17.9 µM | HT-29 19.7 µM | MDA-MB-435 17.1 µM | PC-3 13.9 µM | OVCAR-4 21.3 µM | COLO 205 20 µM | T47D 20.9 µM | A549 16.7 µM | SF-539 23.7 µM | KM12 13.3 µM | SW-620 20.6 µM | LOX IMVI 14.4 µM | DU-145 14.9 µM

NCCCN(CCCN)CCc1cn(C(=O)c2ccccc2)cn1
inactive: SK-MEL-5 7 µM | HOP-62 7.74 µM | SNB-75 6.07 µM | SK-MEL-28 13.8 µM | BT-549 12.5 µM | NCI-H522 10 µM | SF-268 7.8 µM | HT-29 11.9 µM | MDA-MB-435 5.73 µM | PC-3 8.63 µM | OVCAR-4 4.93 µM | COLO 205 3.14 µM | T47D 4.85 µM | A549 9.46 µM | SF-539 13.2 µM | KM12 7.82 µM | SW-620 10.2 µM | LOX IMVI 11.6 µM | DU-145 4.32 µM

Cc1nnc(N)nc1/C=C/c1c(O)ccc2ccccc12
inactive: SK-MEL-5 25.7 µM | HOP-62 33.9 µM | A498 21.3 µM | SK-MEL-28 29.7 µM | BT-549 37.9 µM | SF-268 28.7 µM | HT-29 27 µM | MDA-MB-435 24.7 µM | PC-3 22.8 µM | OVCAR-4 20 µM | COLO 205 44.4 µM | T47D 36.7 µM | A549 34 µM | KM12 34.5 µM | SW-620 31.6 µM | LOX IMVI 34.3 µM | DU-145 52.8 µM

CCN(CC)Cc1nc(C2CCC([N+](=O)[O-])O2)no1 (configuration not stated)
inactive: SK-MEL-5 16.4 µM | HOP-62 35.7 µM | SNB-75 16.6 µM | SK-MEL-28 20.3 µM | BT-549 23.3 µM | NCI-H522 15.9 µM | SF-268 24.5 µM | HT-29 17 µM | MDA-MB-435 18.1 µM | PC-3 27.3 µM | OVCAR-4 77.3 µM | COLO 205 16.6 µM | T47D 27.2 µM | A549 39.8 µM | SF-539 28.2 µM | KM12 26.5 µM | SW-620 19.4 µM | LOX IMVI 31.4 µM | DU-145 25.7 µM

CC(C)COP(=O)(OCC(C)C)C(NS(=O)(=O)c1ccccc1)(C(F)(F)F)C(F)(F)F
inactive: SK-MEL-5 5.12 µM | HOP-62 11.3 µM | SNB-75 2.91 µM | SK-MEL-28 13.6 µM | BT-549 4.03 µM | NCI-H522 4.05 µM | SF-268 7.21 µM | HT-29 4.44 µM | MDA-MB-435 4.45 µM | PC-3 3.68 µM | OVCAR-4 3.4 µM | COLO 205 1.94 µM | T47D 3.38 µM | A549 3.82 µM | SF-539 8.34 µM | KM12 3.93 µM | SW-620 4.15 µM | LOX IMVI 3.57 µM | DU-145 5.71 µM

OC(c1cccnc1)C(F)(F)c1nc2ccccc2o1 (configuration not stated)
inactive: SK-MEL-5 > 100 µM | HOP-62 > 100 µM | A498 49.9 µM | SNB-75 > 100 µM | SK-MEL-28 > 100 µM | BT-549 > 100 µM | SF-268 > 100 µM | HT-29 > 100 µM | MDA-MB-435 > 100 µM | PC-3 > 100 µM | OVCAR-4 > 100 µM | COLO 205 > 100 µM | T47D > 100 µM | SF-539 > 100 µM | KM12 > 100 µM | SW-620 > 100 µM | LOX IMVI > 100 µM | DU-145 50.8 µM

CC1=NC(=Cc2cc(Br)cc(Br)c2)C(=O)N1n1c(-c2ccccc2)nc2ccccc2c1=O
inactive: SK-MEL-5 > 100 µM | HOP-62 > 100 µM | SNB-75 > 100 µM | SK-MEL-28 > 100 µM | BT-549 > 100 µM | NCI-H522 > 100 µM | SF-268 > 100 µM | HT-29 > 100 µM | MDA-MB-435 72.3 µM | PC-3 > 100 µM | OVCAR-4 > 100 µM | COLO 205 > 100 µM | T47D > 100 µM | A549 > 100 µM | SF-539 > 100 µM | KM12 > 100 µM | SW-620 > 100 µM | LOX IMVI > 100 µM | DU-145 > 100 µM
